The values that follow come from paper PMC10819019 (Pharmaceutics, 2024).

A short description of data set [1]: Metabolite profiling in rats (bile, plasma, liver). The format is in vivo, male Sprague–Dawley rats. The following applies: saxagliptin 100 mg/kg intraperitoneal injection, samples up to 4 h. An excerpt:
Male Sprague–Dawley (SD) rats (7 weeks old, 200–225 g) were purchased from SamTako Co. (Osan, Republic of Korea). The animals were acclimatized for one week in an animal facility at the College of Pharmacy, Kyungpook National University (Daegu, Republic of Korea). The Kyungpook National University Animal Care and Use Committee (KNU 2021-0120, 12 July 2021) approved the study protocol, conducted under the National Institutes of Health guidance for the care and use of laboratory animals. […] The bile duct was cannulated with polyethylene tubes (PE-10, Jungdo, Seoul, Republic of Korea) under isoflurane anesthesia (isoflurane vaporizer to 2% with oxygen flow at 0.8 L/min). […] Bile samples were then collected for 4 h. […] The liver tissues were immediately excised, gently washed with ice-cold saline-soaked wet tissue to remove the contaminated blood, and homogenized with 4 volumes of saline. Aliquots of plasma, bile, and 20% liver homogenates were stored at −80 °C until the analysis.
The liver homogenates were vortexed with the same volume of methanol/acetonitrile mixtures (1/1, v/v) and centrifuged (13,500× g, 10 min). The remaining pellets were reextracted twice, and pooled supernatants were dried and reconstituted with 50% methanol in water (100 μL) for LC-MS/MS analysis. Protein concentrations in the pellets were determined using a Bradford protein assay kit (Bio-Rad Laboratories, Hercules, CA, USA) with bovine serum albumin as a standard. The rat bile and plasma (200 μL) samples were vortexed with the same methanol/acetonitrile mixture volume (1/1, v/v). The mixture was centrifuged after vortexing, and the supernatants were dried to complete dryness and reconstituted with 50% methanol in water (100 μL) for LC-MS/MS analysis. The contents of biliverdin in the bile samples were analyzed by measuring ultraviolet absorbance at 380 nm using a microplate reader (Infinite M200 PRO, TECAN, Mannedorf, Switzerland) after 10-fold dilution with 50% methanol.

A short description of data set [2]: Metabolite profiling in rat liver microsomes. The format is in vitro ADME. The settings on record: for Metabolite detection in incubates of saxagliptin: saxagliptin 100 μM, RLM 1 mg/mL, NADPH-generating system and/or L-cysteine, 2 h. The protocol: L-cysteine (100 mM), glutathione (2.5 mM), or UDPGA (5 mM) was added after pre-incubation with or without 100 mM L-cysteine at 37 °C for 5 min to an NADPH-generating system (1.3 mM of NADP^+, 3.3 mM of G6P, 1 unit/mL of G6PDH, and 3.3 mM of MgCl2) to initiate the microsomal reaction. The reaction was stopped by adding cold acetonitrile after microsomal incubation for 2 h.
In the presence of L-cysteine (100 mM) or glutathione (100 mM) in phosphate buffer (100 mM, pH of 7.4), 5-Hydroxysaxagliptin (100 μM) was incubated at 37 °C for 2 h. The supernatants were analyzed using high-resolution Orbitrap MS after incubation reaction termination and centrifugation.
On the technique in general: Microsomes from liver hold many membrane-bound enzymes, among them those of drug oxidation.

For data set [3] the following is noted: cited from earlier work.

Each structure is given as a SMILES string.

Consider `NC(C(=O)N1C(C2=NC(C(=O)NCC(=O)O)CS2)CC2CC21)C12CC3CC(CC(O)(C3)C1)C2` (stereo not shown) [Metabolite M5, Saxagliptin–cysteinylglycine conjugate], for which the “Metabolite detection in rat bile, plasma and liver tissues” value (“Metabolite detection in rat bile” below) in data set [1] is “found in rat bile, plasma, and liver tissues”.

Regarding `NC(C(=O)N1C(C2=NC(C(=O)O)CS2)CC2CC21)C12CC3CC(CC(O)(C3)C1)C2` (stereo not shown) [Metabolite M3, Saxagliptin–cysteine conjugate], the “Metabolite detection in incubates of saxagliptin” value (“Metabolite detection in incubates” for short) in data set [2] was “formed in an enzyme-nonspecific manner”. Besides, the “Metabolite detection in rat bile” value in data set [1] is “observed in rats”.

Regarding `CC#CCn1c(N2CCC[C@@H](N)C2)nc2c1c(=O)n(Cc1nc(C)c3ccccc3n1)c(=O)n2C` [linagliptin], the “Stability on incubation with L-cysteine” value in data set [3] is listed as “stable”. With `Cn1c(=O)cc(N2CCC[C@@H](N)C2)n(Cc2ccccc2C#N)c1=O` [alogliptin], in data set [3], the “Stability on incubation with L-cysteine” value is “stable”. In the case of `N=C1NC(C23CC4CC(CC(O)(C4)C2)C3)N2C1CC1CC12` (stereo not shown) [Metabolite M1, Saxagliptin cyclic amidine], in data set [2], the “Metabolite detection in incubates” value was “found in the incubation sample of saxagliptin with buffer solution (Figure 5a) and RLM (Figure 5c) in the presence of +L-cysteine”. Regarding `NC(C(=O)N1C(C2=NC(C(=O)NCC(=O)O)CS2)CC2CC21)C12CC3CC(O)(CC(O)(C3)C1)C2` (stereo not shown) [Metabolite M6, 5-Hydroxysaxagliptin–cysteinylglycine conjugate], the “Metabolite detection in rat bile” value in data set [1] is given as “observed in rats”. On the same count and under the same terms, the value for `N#CC1CC2CC2N1C(=O)C(N)C12CC3CC(CC(OC4OC(C(=O)O)C(O)C(O)C4O)(C3)C1)C2` (stereo not shown) [Metabolite M8, Saxagliptin-O-glucuronide] was “observed in rat bile, plasma, and liver tissues”. For `Cc1cc2ncc(C(=O)NCC(C)(C)NCC(=O)N3CCC[C@H]3C#N)cn2n1` [anagliptin], the “Stability on incubation with L-cysteine” value in data set [3] is on record as “unstable”. In the case of `N#CC1CC2CC2N1C(=O)C(N)C12CC3CC(O)(CC(O)(C3)C1)C2` (stereo not shown) [Metabolite M2, 5-Hydroxysaxagliptin], the “Metabolite detection in incubates” value in data set [2] is recorded as “observed in rat liver microsomal incubation samples regardless of the addition of L-cysteine”. On to `N#CC1CC2CC2N1C(=O)C(N)C12CC3CC(CC(OS(=O)(=O)O)(C3)C1)C2` (stereo not shown) [Metabolite M7, Saxagliptin-O-sulfate], for which the “Metabolite detection in rat bile” value in data set [1] is “only found in rat bile”. On to `N[C@@H](CC(=O)N1CCn2c(nnc2C(F)(F)F)C1)Cc1cc(F)c(F)cc1F` [sitagliptin], for which the “Stability on incubation with L-cysteine” value in data set [3] is reported as “stable”. As to `NC(C(=O)N1C(C2=NC(C(=O)O)CS2)CC2CC21)C12CC3CC(O)(CC(O)(C3)C1)C2` (stereo not shown) [Metabolite M4, 5-Hydroxysaxagliptin–cysteine conjugate], in data set [2] (microsomal incubation with 5-hydroxysaxagliptin in the presence of L-cysteine), the “Metabolite detection in incubate of 5-hydroxysaxagliptin with L-cysteine” value was “detected”.
